Laboratory results as given in ChEMBL document CHEMBL1145658, “Catharanthus alkaloids XXXVII. 16-Epi-Z-isositsirikine, a monomeric indole alkaloid with antineoplastic activity from Catharanthus roseus and Rhazya stricta” (1983).
In brackets after ≈: the same amount, converted by molar mass.

Assays:
[1] = test system: KB; assay: Cytotoxicity against human KB cells; type: functional; conditions: read-out: ED50 (the source's name)
[2] = test system: P388; assay: In vivo antitumor activity against mouse P388 cells at 2.5 to 10 mg/kg relative to control; type: functional; conditions: dose mg/kg 2.5-10

SMILES: C/C=C1\CN2CCc3c([nH]c4ccccc34)[C@@H]2C[C@@H]1[C@@H](CO)C(=O)OC
- EC50 [1]: 1.2 µg/mL (≈ 3.39 µM)
- T/C [2]: >=150%
